From PMC3653568 (Nature, 2012) come the findings set out here.

Each structure is given as a SMILES string.

In one assay the target is D2 Receptor (Homo sapiens, UniProt P14416). Put plainly: radioligand binding, [3H]N-methylspiperone. Conditions: @ 10μM (Fig. 1c).
The target in a further assay is Dopamine receptor D2 (Homo sapiens, UniProt P14416). In kind it is cell-based. The following applies: Fig. 3A agonist assay.
A further assay concerns the target T1, Dopamine receptor D4 (Homo sapiens, UniProt P21917).
T1 sequence (P21917 1-419): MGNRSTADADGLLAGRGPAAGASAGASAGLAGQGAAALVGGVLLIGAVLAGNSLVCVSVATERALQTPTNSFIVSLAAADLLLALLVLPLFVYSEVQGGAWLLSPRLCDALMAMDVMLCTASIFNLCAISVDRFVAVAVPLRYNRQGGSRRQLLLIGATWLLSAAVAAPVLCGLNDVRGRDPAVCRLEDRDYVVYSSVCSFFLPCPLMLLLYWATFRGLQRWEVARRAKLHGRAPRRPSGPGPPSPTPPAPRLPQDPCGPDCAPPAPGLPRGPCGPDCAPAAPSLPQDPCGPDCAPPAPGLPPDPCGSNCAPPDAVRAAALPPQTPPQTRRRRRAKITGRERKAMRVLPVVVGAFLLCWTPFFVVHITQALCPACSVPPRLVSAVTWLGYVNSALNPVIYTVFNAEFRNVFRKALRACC
It is filed as cell-based. The following applies: Fig. 3A agonist assay.

The target in another assay is T2, D4 Receptor (Homo sapiens, UniProt P21917).
T2 sequence (P21917 1-419): T1 sequence (P21917 1-419)
Kind of assay: radioligand binding, [3H]N-methylspiperone. The following applies: bound stated.

D2 Receptor, sequence (P14416 whole entry): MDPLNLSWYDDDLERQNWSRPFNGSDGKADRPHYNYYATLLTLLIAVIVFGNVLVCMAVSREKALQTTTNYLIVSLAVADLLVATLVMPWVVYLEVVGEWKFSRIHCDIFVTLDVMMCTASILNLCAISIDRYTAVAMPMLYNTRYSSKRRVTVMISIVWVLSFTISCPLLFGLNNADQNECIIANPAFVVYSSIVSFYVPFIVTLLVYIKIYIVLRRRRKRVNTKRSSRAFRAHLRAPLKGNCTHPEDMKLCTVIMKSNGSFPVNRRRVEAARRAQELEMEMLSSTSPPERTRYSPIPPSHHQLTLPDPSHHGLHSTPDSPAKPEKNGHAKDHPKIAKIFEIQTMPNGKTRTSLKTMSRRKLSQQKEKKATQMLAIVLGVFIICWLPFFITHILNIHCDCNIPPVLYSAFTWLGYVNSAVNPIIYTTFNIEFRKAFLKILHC
Dopamine receptor D2, sequence (P14416 whole entry, species assumed): as the sequence (P14416 whole entry) above

As to `COc1cc2c(cc1OC)C(=O)N(CCCCN1CCN(c3ccccc3OC)CC1)C2` [Compound 3], the “radioligand percentage inhibition D2” value on D2 Receptor was 96%. Further, the D2 functional mode result at Dopamine receptor D2 is listed as “inverse agonist”. Besides, the D4 functional mode result on Dopamine receptor D4 is given as “agonist”.

As for `c1cncc(OC[C@@H]2CN(CCN3CCc4ccccc43)CCO2)c1` [Compound 21s], the Ki on D4 Receptor was below 1 µM.

With `COc1cc2c(cc1OC)C(=O)C(CC1CCN(Cc3ccccc3)CC1)C2` (stereo not drawn) [Donepezil (Cpd 1), Donepezil, reference compound], the “radioligand percentage inhibition D2” value on D2 Receptor is reported as 19%. For the same molecule, the D4 functional mode result on Dopamine receptor D4 is given as “inverse agonist”.
